We go through four compounds from patent US5843955A, “Compound LK6-A” (Kyowa Hakko Kogyo Co., Ltd., priority 1995, dated 1998).

For one data set, the system named is L1210 cell. To be noted: Tetrahedron Letters, 31, 3271 (1990); cited from earlier work.
The subject of another data set is reverse transcriptase. The note with it: U.S. Pat. No. 4,959,370; J. Am. Chem. Soc., 112, 1 (1990); cited from earlier work.
Data set [1] has as its system Nippostrongylus brasiliensis. To be noted: U.S. Pat. No. 4,959,370; J. Am. Chem. Soc., 112, 1 (1990); cited from earlier work.
The next data set in a line: Solubility. The format is physicochemical.
The subject of a further data set is T cells. In words: Growth inhibition against T cells in murine mixed lymphocyte reaction. To be noted: Mus musculus, T-cell; 72 hours at 37° C., [^3 H]Thymidine incorporation (added 18 hours before end); read-out: 50% inhibitory concentration (IC50) against the growth of T cells in murine mixed lymphocyte reaction. In kind it is cell-based. Here is the method:
Growth inhibition against T cells in murine mixed lymphocyte reaction
Lymph node was aseptically excised from a B10.BR mouse (Japan SLC Inc.) with a solution comprising Hanks' […] salt solution (HBSS, Gibco) and 2.5% fetal calf serum (FCS, Gibco) (hereinafter referred to as HBSS-FCS) and resuspended into a culture medium (RPMI 1640, Nissui) containing 10% fetal calf serum (FCS, Gibco), 1% 200 mM L-Gultamine (Gibco), 1% Penicillin-Streptoymycin liquid (Gibco), 5% NCTC-109 (Gibco), 1% 1M HEPES (Gibco), 7.5% NaHCO3 (SIGMA) and 0.1% 50 mM 2-mercaptoethanol (Nakarai) (hereinafter referred to as RPMI 1640-FCS) to prepared a single cell suspension to give a density of 3×10^6 cells/ml. […]
[^3 H]Thymidine was added to the wells in an amount of 1.0 μCi/well 18 hours before the end of each incubation. […] A toluene scintillator was added to the cells, and the amount of [^3 H]Thymidine radioactivity incorporated into the cells was determined using a liquid scintillation counter. The T cell growth inhibition rate was calculated according to the following equation. […]
C: Amount of [^3 H]Thymidine radioactivity incorporated into the mixed cell suspension
T: Amount of [^3 H]Thymidine radioactivity incorporated into the LK6-A-treated mixed cell suspension
A: Amount of [^3 H]Thymidine radioactivity incorporated into only the B10.BR murine lymph node cells. […]

pIC50: −log10 of the molar value.

In the case of plakinidine A, the “cytotoxic activity against the L1210 cell” value in the data set with L1210 cell is “cytotoxic activity”. In addition, in the data set with reverse transcriptase, the “reverse transcriptase inhibitory activity” value was “reverse transcriptase inhibitory activity”. For the same compound, in data set [1], the “activity against a parasite Nippostrongylus brasiliensis” value was “activity”.
`CO/C=C/C(=O)c1cc2c3c(c(N)cc(NC(C)=O)c3n1)N=C2` [LK6-A]: the Solubility result is recorded as “sparingly soluble” in “Solubility” (chloroform); “Soluble” in the data set “Solubility” (dimethylsulfoxide (DMSO)); “insoluble” in the data set “Solubility” (hexane); “sparingly soluble” in the data set “Solubility” (methanol); “sparingly soluble” in “Solubility” (water). The pIC50 in the data set on T cells is 8.05.
Regarding `CNc1c2ncc3c4ccccc4[nH]c(c4nccc(=O)c14)c23` [plakinidine C], the “cytotoxic activity against the L1210 cell” value with L1210 cell was “cytotoxic activity”.
Regarding plakinidine B, the “cytotoxic activity against the L1210 cell” value in the data set on L1210 cell is “cytotoxic activity”. Moreover, the “activity against a parasite Nippostrongylus brasiliensis” value in data set [1] was “activity”.
